From paper PMC7551591, “The Effect of Resveratrol or Curcumin on Head and Neck Cancer Cells Sensitivity to the Cytotoxic Effects of Cisplatin” (Nutrients, 2020)

Columns and labels:
Assay type in all cases: cell-based, human
PE/CA-PJ49 tumor cells [1] = assay: MTT drug sensitivity (viability) assay, tumor cells; conditions: PE/CA-PJ49, 24 h
Description: (§1) The MTT assay is based on the ability of viable cells to reduce the reagent 3-(4,5-dimethylthiazol-2-yl)-2,5-diphenyltetrazolium bromide to colored formazan compounds [48]. Because the transformation is only possible in viable cells, the amount of blue formazan is proportional to the number of viable cells and thus, a linear dependence exists between cell activity and absorbance. Cells were seeded in triplicate in 96-well plates at a density of 5000 cells/well, incubated at 37 °C for 24 h. […] After the incubation period, 20 μL MTT (5 mg/mL in PBS) was added and further incubated for 4 h. The supernatant was removed, and the formazan product was analyzed spectrophotometrically (570 nm) after dissolution in DMSO. Wells without cells serve as a blank, and their absorbance was subtracted from the other results. Untreated cells were used as control and their viability was assumed as 100%. Results were expressed as mean values of three determinations ± standard deviation (SD). Data are presented as percent of cell viability and compared to untreated [Viability% = (T − B)/(U − B) × 100, {where T = absorbance of treated cells; U = absorbance of untreated cells, B = absorbance of blank}]. Once percent viability was obtained, the drug response curve was generated, and inhibitory concentration (IC50 and IC25) was calculated using GraphPad Prism version 5.01 [49].
(§2) SI values of more than 2 were considered as indicative of high selectivity.
(§3) The anticancer cytotoxic activity in vitro was evaluated by the MTT assay. […] The most widely used and informative measure of a drug’s efficacy is IC50-the half-maximal inhibitory concentration. IC50 was determined at half of the difference between the maximum (plateau) and minimum absorbance values, by plotting the absorbance value at 570 nm (Y axis) versus the concentration of the compound analysed (X axis). The IC50 values were reported as a mean of three independent experiments ± standard deviation (S.D.).

HUVEC normal cells [2] = assay: Cell cycle phase distribution by PI flow cytometry, normal cells; conditions: 24 h
Description: (§4) For analysis of cell-cycle distribution, the cells were collected after treatment, fixed with 70% ethanol for at least one hour at 4 °C. The cells were stained with propidium iodide (PI) an agent which intercalates into the major groove of double-stranded DNA and produces a highly fluorescent adduct that can be excited at 488 nm with a broad emission around 600 nm. Since PI can also bind to double-stranded RNA, it is necessary to treat the cells with RNase for optimal DNA resolution. Cells (1×10^6 cells/mL) were washed in PBS and centrifuge at 300× g, 5 min at 4 °C. The pellet of the cells were incubated for 10 min at 37 °C with 0.5 mg/sample RNase A and then was added 10 μg/sample of PI staining solution to cell pellet, mix well and incubated 10 min at 37 °C. The samples stored at 4 °C until analyzed by flow cytometry. A minimum of 20,000 events for each sample were collected using a FACS CantoII flow cytometer and ModFIT software (BectonDickinson) and used to determine the cell cycle phase distribution after debris exclusion.
(§5) The progression through the cell cycle phases induced by treatment were evaluated by flow cytometry using a FACSCanto II flow cytometer. Data analysis were performed using the ModFit 3.2 program which offers the possibility of evaluating the cell cycle phases distribution (G0/G1, S, G2 + M).

HUVEC normal cells [3] = assay: MTT drug sensitivity (viability) assay, normal cells; conditions: 24 h
Description: as §1, §2, §3

PE/CA-PJ49 tumor cells [4] = assay: Cell cycle phase distribution by PI flow cytometry, tumor cells; conditions: 24 h, CisPt 20 μM
Description: as §4, §5

[5] = test system: p21 protein (CIP1/CDKN1A) expression in PE/CA-PJ49; assay: Total p21 protein ELISA in cell lysates, tumor cells; conditions: 24 h
Description: (§6) After incubation, cells were washed twice with ice-cold PBS, scraped, pelleted and lysed in RIPA buffer (Pierce) supplemented with protease inhibitor cocktail (Roche) and phosphatase inhibitor (Roche) for 30 min on ice. The lysates were transfered into microcentrifuge tubes and centrifuged at 14,000× g for 5 min at 4 °C followed by sonication (10–15 s × 3). The supernatants were collected into clean microcentrifuge tubes and stored at −80 °C. Lysates protein concentration were quantified by BCA protein assay kit (Thermo Scientific) and aliquots of 50 μg of total cell lysate were used for ELISA assay.
(§7) DuoSetR IC ELISA-Human Total p21/CIP1/CDKN1A(: DYC1047-2) was purchased from R&D Systems Inc. and contains the basic components required for the development of sandwich ELISAs to measure human p21 protein also known as CIP1 and CDKN1A in cell lysates. An immobilized capture antibody specifically binds human p21. After washing away unbound material, a biotinylated detection antibody specific for human p21 is used to detect the captured protein, utilizing a standard Streptavidin-HRP format. All experiments were performed in triplicates and absorbance was measured at λ = 450 nm using a Dynex plate reader.
(§8) In cancer development and evolution p21 protein might acts as an oncogene or tumor suppressor and for this reason it could be an important player in processes such as the cancer aggressiveness or the response to chemotherapy. In this study, using ELISA assay we analyzed the expression level of p21 in the tumor cells (PE-CA/PJ49) compared to a normal cells (HUVEC).

HUVEC normal cells [6] = assay: Annexin V-FITC/PI apoptosis flow cytometry, normal cells; conditions: 24 h; for Apoptoza Tarzie = Q2 (%): late apoptosis; for Apoptoza Totală = Q2+Q4 (%): total apoptosis
Description: (§9) The apoptosis assay was carried out with the Annexin V-FITC kit using the manufacturer’s (BD Pharmingen) protocol. Treated and untreated 1 × 10^6 cells/mL were resuspended in cold binding buffer and staining simultaneously with 5 μL FITC-Annexin V (green fluorescence) and 5 μL propidium iodide (PI) in the dark, at room temperature for 15 min. Then, 400μL of Annexin V binding buffer was added and 10,000 cells/sample were acquired using a BD Canto II flow cytometer. The analysis was performed using DIVA 6.2 software in order to discriminate viable cells (FITC^−PI^−) from necrotic cells […] and early apoptosis (FITC^+PI^−) from late apoptosis.
(§10) Apoptosis can be seen as an efficient method of preventing malignant transformation, as it ensures the removal of cells which present with genetic alterations. Deficient apoptosis can promote the development of cancer, both through the accumulation of cells found during division and the blocking of the removal of cells with high malignant potential genetic variations. The factors which determine the cells to follow one of three possible pathways are not yet known – the start of apoptosis after cellular injury, the repair of the lesion or the continuation of the cellular cycle. Many therapeutical agents have anti-tumoral effects generated by their capacity to activate the apoptotic process. […] The flow cytometric analysis was performed using DIVA 6.2 software and allowed to discriminate viable cells (FITC^−PI^− = Q3) from necrotic cells (FITC^−PI^+ = Q1) and early apoptosis (FITC^+PI^− = Q4) from late apoptosis (FITC^+PI^+ = Q2).

[7] = test system: p21 protein (CIP1/CDKN1A) expression in HUVEC; assay: Total p21 protein ELISA in cell lysates, normal cells; conditions: 24 h
Description: as §6, §7, §8

PE/CA-PJ49 tumor cells [8] = assay: Annexin V-FITC/PI apoptosis flow cytometry, tumor cells; conditions: 24 h
Description: as §9, §10

N.N.[Cl][Pt][Cl] [CisPt, cis-diamminedichloroplatinum]
cell viability (MTT) (PE/CA-PJ49 tumor cells [1]; CisPt 5 μM vs untreated cells): significantly affected
cell viability (MTT) (PE/CA-PJ49 tumor cells [1]; CisPt 20 μM vs untreated cells): significantly affected
IC 25 (PE/CA-PJ49 tumor cells [1]; MTT): 3.95 ± 1.2 µM
IC50 (PE/CA-PJ49 tumor cells [1]; MTT): 9.72 ± 1.7 µM
synthesis phase (S) (HUVEC normal cells [2]; 5 μM CisPt): 29.2%
S% (HUVEC normal cells [2]; CisPt 20 μM): 39.65%
cell viability (MTT) (HUVEC normal cells [3]; CisPt 5 μM vs untreated cells): significantly reduced
cell viability (MTT) (HUVEC normal cells [3]; CisPt 20 μM vs untreated cells): significantly reduced
IC 25 (HUVEC normal cells [3]; MTT): 5.82 ± 1.1 µM
IC50 (HUVEC normal cells [3]; MTT): 20.9 ± 2.1 µM
G2/M% (PE/CA-PJ49 tumor cells [4]): 27.5%
p21 pg/mL PE/CA-PJ49 ([5]; 5 μM CisPt): 1157 pg/mL
p21 pg/mL PE/CA-PJ49 ([5]; 20 μM CisPt): 915 pg/mL
Early Apoptosis = Q4 (%) (HUVEC normal cells [6]; 5 μM CisPt): 5.6%
Necrosis = Q1 (%) (HUVEC normal cells [6]; 5 μM CisPt): 1.6%
Early Apoptosis = Q4 (%) (HUVEC normal cells [6]; 20 μM CisPt): 7.7%
Necrosis = Q1 (%) (HUVEC normal cells [6]; 20 μM CisPt): 1.5%
Apoptoza Tarzie = Q2 (%) (HUVEC normal cells [6]; 5 μM CisPt): 0.5%
Apoptoza Tarzie = Q2 (%) (HUVEC normal cells [6]; 20 μM CisPt): 0.5%
Apoptoza Totală = Q2+Q4 (%) (HUVEC normal cells [6]; 5 μM CisPt): 6.1%
Apoptoza Totală = Q2+Q4 (%) (HUVEC normal cells [6]; 20 μM CisPt): 8.2%
p21 pg/mL HUVEC ([7]; 5 μM CisPt): 238 pg/mL
p21 pg/mL HUVEC ([7]; 20 μM CisPt): 195 pg/mL
Early Apoptosis = Q4 (%) (PE/CA-PJ49 tumor cells [8]; 5 μM CisPt): 11.3%
Late Apoptosis = Q2 (%) (PE/CA-PJ49 tumor cells [8]; 5 μM CisPt): 1.2%
Necrosis = Q1 (%) (PE/CA-PJ49 tumor cells [8]; 5 μM CisPt): 2.1%
Total Apoptosis = Q2 + Q4 (%) (PE/CA-PJ49 tumor cells [8]; 5 μM CisPt): 12.5%
Early Apoptosis = Q4 (%) (PE/CA-PJ49 tumor cells [8]; 20 μM CisPt): 15.3%
Late Apoptosis = Q2 (%) (PE/CA-PJ49 tumor cells [8]; 20 μM CisPt): 2.1%
Necrosis = Q1 (%) (PE/CA-PJ49 tumor cells [8]; 20 μM CisPt): 1.4%
Total Apoptosis = Q2 + Q4 (%) (PE/CA-PJ49 tumor cells [8]; 20 μM CisPt): 17.4%
